According to US9603836B2, “Pyrrolidine-2, 5-dione derivatives, pharmaceutical compositions and methods for use as IDO1 inhibitors” (ITEOS THERAPEUTICS, priority 2014, dated 2017):

Assays:
Kynurenine [1] = assay: In-vivo inhibition of blood kynurenine levels in healthy mice; design: species or system mouse; details: two hours
Protocol: The compounds of the present invention reduce the amount of Kynurenine in healthy mouse blood.
Briefly, mice were treated with either a suspension of one of the compounds of the present invention in 0.5% hydroxypropyl methylcellulose (HPMC) K4M/0.25% Tween 20 at different doses, or with a vehicle control (0.5% HPMC K4M/0.25% Tween 20), by the oral route by gavage (dosing volume 5 mL/kg, 10 mice per group). After two hours, blood was harvested, plasma was prepared and the amount of Kynurenine present was determined by LC-MS-MS (HPLC column Unison UK-Phenyl, 75×4.6, 3 μm, flow rate 0.8 mL/min, 4 minutes gradient from water+0.2% acetic acid to methanol+0.1% formic acid, retention time 2.7 min; API4000™ MS-MS system from AB Sciex, ESI+ mode, parent ion 209.2, daughter ion 94.1).

4T1 tumors = assay: In vivo efficacy in 4T1 breast cancer syngeneic model; design: species or system Balb/c mice; details: 4T1, 100 mg/kg BID oral
Protocol: In vivo efficacy studies for Compounds of the present invention were performed on 4T1 syngeneic tumor model of Balb/c mice implanted orthotopically in the mammary gland. One hundred thousand 4T1 breast cancer cells (ATCC® CRL-2539™)] were implanted orthotopically within the mammary gland of 7 weeks old Balb/c mice (day 0). Animals were randomized based on tumor size when tumor average reached 60 mm^3 (between day 7 and 11) into different treatment cohorts. The Compound of the present invention was administered orally twice per day (approximately at 9 am and 5 pm) starting the day of randomization. The Compounds were suspended into Methocel™ cellulose ether vehicle and sonicated before oral administration to animals using gavage needles. Treatment was administered daily until the end of the study. All experimental animals were monitored for body weight changes twice weekly. Tumor volume was measured twice a week by a caliper device and calculated with the following formula: Tumor volume=0.5×(length×width^2). Studies were terminated before tumor volumes reached 2000 mm. TGI (% tumor growth inhibition) was determined as […]

PancO2 tumors = assay: In vivo efficacy in PancO2 pancreatic cancer syngeneic model; design: species or system C57/B16 mice; details: PancO2, 200 mg/kg BID oral
Protocol: In vivo efficacy studies of the Compounds of the present invention were performed on PancO2 syngeneic tumor model of C57/B16 mice implanted subcutaneously. Five millions PancO2 pancreas cancer cells were implanted subcutaneously to 7 weeks old C57/B16 mice (day 0). Animals were randomized based on tumor size when tumor average reached 60 mm^3 (between day 10 and 12) into different treatment cohorts. The Compound was administered orally twice per day (approximately at 9 am and 5 pm) starting the day of randomization. The Compound was suspended into Methocel vehicle and sonicated before oral administration to animals using gavage needles. Treatment was administered daily until the end of the study. All experimental animals were monitored for body weight changes weekly. Tumor volume was measured weekly using a caliper device and calculated with the following formula: Tumor volume=0.5×(length×width^2). Studies were terminated before tumor volumes reached 2000 mm. TGI (% tumor growth inhibition) was determined as
Treatment was administered daily until the end of the study. Tumor volume was measured weekly using a caliper device and calculated with the following formula: Tumor volume=0.5×(length×width^2). Mice were considered as dead when tumor size reached 400 mm^3. […] SEM refers to standard error of measurement.

Kynurenine [2] = assay: Inhibition of tryptophan degradation in 4T1 tumor tissue; assay type: in vivo, Balb/c mice; details: 200 mg/kg oral twice per day, 4 h after administration
Protocol: Compounds of this invention are capable of lowering kynurenine concentration within mouse tumors, for example 4T1 syngeneic tumors of Balb/c mice implanted orthotopically in the mammary gland. One hundred thousand 4T1 breast cancer cells were implanted orthotopically within the mammary gland of 7 weeks old Balb/c mice (day 0). Animals were randomized based on tumor size when tumor average reached 60 mm^3 (day 6) into different treatment cohorts (n=10/group). Animals were treated with Methocel vehicle from day 6 to 26 until tumors reached a size comprised between 1500 and 2000 mm^3. […] The tumor was removed, weighted and frozen on dry ice. Tumors were analyzed by LC/MS-MS for Kynurenine concentration.

Kynurenine [3] = assay: Inhibition of tryptophan degradation in CT26 tumor tissue; assay type: in vivo, Balb/c mice; details: 200 mg/kg oral twice per day, 2 h after administration
Text: (§1) In the present study, CT26 syngeneic tumors were implanted subcutaneously in Balb-c mice. More particularly, Five hundred thousand (500,000) CT26 colon carcinoma cancer cells [CT26.WT, available from the ATCC® CRL-2628™] were implanted subcutaneously in 7 weeks old Balb/c mice (day 0). Animals were randomized based on tumor size when tumor average reached 150 mm^3 (day 11) into different treatment cohorts (n=10/group). […] The tumor was removed, weighted and frozen on dry ice. Tumors were analyzed by LC/MS-MS for Kynurenine concentration.

CT26 tumors = assay: Tumor growth inhibition in CT26 colon syngeneic mouse tumor model; assay type: in vivo, Balb/c mice
Text: as §1
In a separate study, anti-tumor efficacy of IDO-1 inhibition was tested in the colon syngeneic mouse tumor model CT26 with a range of different treatment regimens. The model was essentially as described above, except that 1×10^6 cells in phosphate buffered saline (PBS) were implanted subcutaneously in the flank of 8 week old Balb/c females on day 0 (10 in each group). Mice were randomized into treatment groups (100 mg/kg BID, 200 mg/kg BID or 600 mg/kg BID) based on tumor size on day 9 when treatment started. The results are shown the following table and in FIG. 7.

`O=C1CC(c2c[nH]c3ccc(F)cc23)C(=O)N1` (racemic) [Compound 1, 3-(5-fluoro-1H-indol-3-yl)pyrrolidine-2,5-dione] was tested, and the “Kynurenine concentration in plasma (average ± standard error of the mean)” value (Kynurenine [1]; 100 mg/kg oral) was 111.1 ± 27.0 ng/mL, the “inhibition of circulating Kynurenine” value (Kynurenine [1]; 100 mg/kg oral) was 41% and the “Kynurenine concentration in plasma (average ± standard error of the mean)” value (Kynurenine [1]; 200 mg/kg oral) was 77.7 ± 9.2 ng/mL. The “inhibition of circulating Kynurenine” value (Kynurenine [1]; 200 mg/kg oral) was 59%, the “Mean tumor volume on day 25” value (4T1 tumors) was 443.7 mm^3 and the “TGI (Tumor growth inhibition)” value (4T1 tumors; day 25) was 43.4%. For the same molecule, the “Mean tumor volume on day 42” value (PancO2 tumors) was 457.0 mm^3, the “TGI (Tumor growth inhibition)” value (PancO2 tumors; day 42) was 26.2% and the “Kynurenine concentration (ng/g tumor) Average ± SEM” value (Kynurenine [2]) was 417.2 ± 55.7 ng/g tumor. The “reduction of Kynurenine concentration” value (Kynurenine [2]) was 47%, the “Kynurenine concentration (ng/g tumor) Average ± SEM” value (Kynurenine [3]) was 876 ± 68 ng/g tumor and the “reduction of Kynurenine concentration” value (Kynurenine [3]) was 59%. For the same molecule, the “% TGI (D15)” value (CT26 tumors; CT26, 100 mg/kg BID) was 29%, the “% TGI (D17)” value (CT26 tumors; CT26, 100 mg/kg BID) was 33% and the “% TGI (D20)” value (CT26 tumors; CT26, 100 mg/kg BID) was 20%. The “% TGI (D15)” value (CT26 tumors; CT26, 200 mg/kg BID) was 38%, the “% TGI (D17)” value (CT26 tumors; CT26, 200 mg/kg BID) was 41% and the “% TGI (D20)” value (CT26 tumors; CT26, 200 mg/kg BID) was 34%. The “% TGI (D15)” value (CT26 tumors; CT26, 600 mg/kg BID) was 36%, the “% TGI (D17)” value (CT26 tumors; CT26, 600 mg/kg BID) was 51% and the “% TGI (D20)” value (CT26 tumors; CT26, 600 mg/kg BID) was 38%.
